Laboratory results reported in US12448372B2, “Class of triaromatic compounds targeting bifunctional phosphorylation site of STAT3 and applications thereof” (SHANGHAI YUYAO BIOTECH LTD., priority 2019, dated 2025).
Where two headings read alike, the source gives them in different places.

What was measured:
STAT3 protein = STAT3 protein (Homo sapiens, UniProt P40763); assay: Binding activity to STAT3 protein by microscale thermophoresis (MST); conditions: purified STAT3 recombinant protein
Summary of the method: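 His-tag-labelled purified recombinant STAT3 (final 100–200 nM) was mixed with compounds at 16 concentrations in MST buffer and incubated 30 min protected from light. Thermophoresis read in capillaries gave KD values.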

MKN45 = assay: Cell proliferation by MTS method, MKN45; type: cell-based; conditions: Homo sapiens, MKN-45
Summary of the method: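 Cells were seeded at 1-20×10^3 per well and allowed to adhere, then exposed to a range of compound concentrations against medium-only controls for 24-96 h. MTS was added in the dark, plates incubated at 37° C., and absorbance read at 490 nm; IC50 from triplicate experiments.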

BXPC3 = assay: Cell proliferation by MTS method, BXPC3; type: cell-based; conditions: Homo sapiens, BXPC-3, Pancreatic Cancer
Source text: (§1) (2) Detection of Cell Proliferation by MTS Method
(§2) The MTS assay is a method for indirectly determining the number of living cells via colourimetric method. MTS is a newly synthesised tetrazole compound that reflects cell viability, which can be reduced by succinate dehydrogenase in the mitochondria of living cells to an orange-coloured formazan with an absorbance of the reduced product measured at 490 nm being in proportion to the number of living cells, thus reflecting the cell viability. This assay can be used to evaluate the effect of the compound on the proliferation of pancreatic cancer cells, thereby determining the inhibitory effect of the compound on the proliferation of pancreatic cancer cells and to calculate the IC^50. Each cells were inoculated uniformly into a 96-well plate at a density of 1-20×10^3 cells/well, 100 μL per well, and placed in a constant temperature incubator until the cells adhered to the wall. […] Under light-proof conditions, MTS was added and well mixed, the mixture was placed in a constant temperature incubator at 37° C., and the light absorption value were measured using an enzyme marker at 490 nm and the experiment was repeated for three times, IC50 was calculated with GraphPad5 Prism software.

SW1990 = assay: Cell proliferation by MTS method, SW1990; type: cell-based; conditions: Homo sapiens, Pancreatic Cancer
Source text: as §1, §2

LNCAP = assay: Cell proliferation by MTS method, LNCAP; type: cell-based; conditions: Homo sapiens, Prostate Cancer
Source text: as §1, §2

HCT8 = assay: Cell proliferation by MTS method, HCT8; type: cell-based; conditions: Homo sapiens, HCT-8, Colon Cancer
Source text: as §1, §2

HT29 = assay: Cell proliferation by MTS method, HT29; type: cell-based; conditions: Homo sapiens, HT-29, Colon Cancer
Source text: as §1, §2

HCT-116 = assay: Cell proliferation by MTS method, HCT-116; type: cell-based; conditions: Homo sapiens, Colon Cancer
Source text: as §1, §2

A549 = assay: Cell proliferation by MTS method, A549; type: cell-based; conditions: Homo sapiens, Lung Cancer
Source text: as §1, §2

H460 = assay: Cell proliferation by MTS method, H460; type: cell-based; conditions: Homo sapiens, NCI-H460, Lung Cancer
Source text: as §1, §2

H1299 = assay: Cell proliferation by MTS method, H1299; type: cell-based; conditions: Homo sapiens, NCI-H1299, Lung Cancer
Source text: as §1, §2

PC-9 = assay: Cell proliferation by MTS method, PC-9; type: cell-based; conditions: Homo sapiens, Lung Cancer
Source text: as §1, §2

HCCC9810 = assay: Cell proliferation by MTS method, HCCC9810; type: cell-based; conditions: Liver Cancer
Source text: as §1, §2

[1] = tested on: STAT3-Tyr705 and Ser727 in pancreatic cancer cells; assay: Western blot of STAT3 phosphorylation in pancreatic cancer cells; type: cell-based; conditions: 12-24 h, FIG. 1A
Source text: Finally, the expression levels of protein were detected by Odyssey scanner.

[2] = tested on: Human pancreatic cancer cells (ASPC-1); assay: In situ growth metastasis model of pancreatic cancer, ASPC-1 in nude mice; type: in vivo; conditions: in situ growth metastasis model (ASPC-1), nude mice, 5, 10, 20 mg/kg by gavage once a day, FIG. 4D
Procedure: (2) In situ growth metastasis model of pancreatic cancer. Human pancreatic cancer cells (ASPC-1) were used to bear tumors in the pancreas of age-appropriate nude mice, 6 or more mice in each group. One week after injection of tumour cells, all mice were randomly divided to the control group, WB737-5 mg/kg low dose group, 10 mg/kg medium dose group, 20 mg/kg high dose group and positive compound group. Different doses of WB737 or the positive compound were administered by gavage, and mice of control group were administered the same dose of solvent orally […], dosing once a day. During the experiment, the time and number of mice died due to pancreatic cancer metastasis were counted, and the results of the experiment were counted and survival curves were plotted.

STAT3 SH2 domain = STAT3 SH2 domain (Homo sapiens, UniProt P40763); assay: Microscale thermophoresis binding to STAT3 SH2 domain; conditions: MST, FIG. 5A; read-out: affinity for the STAT3 SH2 domain
Source text: The microscale thermophoresis (MST) technique is a simple, rapid, and accurate method for quantifying biomolecular interactions. It can measure the movement of molecules in a microscopic temperature gradient field, as well as detect changes of molecular hydration shell, charge and size. When the Nanotemper microscale thermophoresis instrument locally heated by a infrared laser, molecules will move in a directional manner, then the molecular distribution ratio in the temperature gradient field are analyzed by a fluorescence to detect whether a small molecule compound binds to a target protein. The experimental operation is as follows: firstly, compounds to be tested are diluted in a gradient using MST test buffer, total 16 concentrations being configured; subsequently, the purified STAT3 recombinant protein is labeled using the HIS tag labeling kit, and the final concentration of the labeled protein is 100-200 nM; the labeled STAT3 proteins are well mixed with the diluted compounds and incubated and protected from light for 30 minutes; finally the samples were loaded by capillary tube and detected on the instrument. The binding constants (K^D) of small molecules to STAT3 protein were analyzed by Mo. analysis software.
(1) Microscale Thermophoresis Experiment
The method is as described in Example 40.

Chain of STAT3 protein (P40763 whole entry): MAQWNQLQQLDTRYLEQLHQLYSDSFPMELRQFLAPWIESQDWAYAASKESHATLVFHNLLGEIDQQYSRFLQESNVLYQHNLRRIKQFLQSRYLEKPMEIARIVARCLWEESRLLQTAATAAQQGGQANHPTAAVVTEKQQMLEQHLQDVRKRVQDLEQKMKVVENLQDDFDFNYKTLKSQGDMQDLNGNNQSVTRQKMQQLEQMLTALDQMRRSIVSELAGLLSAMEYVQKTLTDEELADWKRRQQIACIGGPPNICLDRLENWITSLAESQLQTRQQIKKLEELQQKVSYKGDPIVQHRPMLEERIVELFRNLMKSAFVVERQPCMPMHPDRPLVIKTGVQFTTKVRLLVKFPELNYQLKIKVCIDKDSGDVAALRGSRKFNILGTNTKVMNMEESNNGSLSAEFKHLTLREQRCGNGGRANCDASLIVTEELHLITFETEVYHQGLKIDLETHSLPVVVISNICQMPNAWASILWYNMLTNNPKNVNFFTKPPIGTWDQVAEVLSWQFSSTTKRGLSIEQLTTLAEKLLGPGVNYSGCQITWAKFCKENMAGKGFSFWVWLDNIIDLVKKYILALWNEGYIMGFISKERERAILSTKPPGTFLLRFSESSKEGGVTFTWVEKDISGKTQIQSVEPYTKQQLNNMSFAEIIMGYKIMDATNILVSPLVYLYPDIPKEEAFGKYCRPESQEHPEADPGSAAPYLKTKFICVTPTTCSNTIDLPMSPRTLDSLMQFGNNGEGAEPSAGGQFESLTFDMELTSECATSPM
Chain of STAT3 SH2 domain (P40763 580-670 limits assumed): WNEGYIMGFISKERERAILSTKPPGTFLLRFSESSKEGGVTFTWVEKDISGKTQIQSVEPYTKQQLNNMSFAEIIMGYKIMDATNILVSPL

Cn1c(C(=O)N2CCN(Cc3ccc(OCC(F)(F)F)cc3)CC2)cc2ccc(Oc3cnc(-c4nc(-c5ccc(C(F)(F)F)cc5)no4)cn3)cc21 [Example 6, (6-((5-(3-(4-(trifluoromethyl)phenyl)-1,2,4-oxadiazol-5-yl)pyrazin-2-yl)oxy)1-methyl-1H-indol-2-yl)(4-(4-(2,2,2-trifluoroethoxy)benzyl)piperazin-1-yl)methanone]
Kd (STAT3 protein): < 10 nM
IC50 (MKN45; Table 1, MKN45, read-out: Tumour cell proliferative activity/IC50(nM) gastric Cancer MKN45): < 10 nM
IC50 (MKN45; gastric Cancer, MKN45, read-out: IC50): 1.6 nM
IC50 (BXPC3): 7.6 nM
IC50 (SW1990): 1.3 nM
IC50 (LNCAP): 10.3 nM
IC50 (HCT8): 20.9 nM
IC50 (HT29): 31.6 nM
IC50 (HCT-116): 11.3 nM
IC50 (A549): 11.9 nM
IC50 (H460): 4.6 nM
IC50 (H1299): 26 nM
IC50 (PC-9): 21.3 nM
IC50 (HCCC9810): 73.3 nM
concentration that completely inhibits the expression of STAT3-Tyr705 and Ser727 [1]: lower than 50 nM
survival of mice [2]: significantly prolongs the survival of mice
Kd (STAT3 SH2 domain): 2.25 nM
